# Measurements as given in US20100113599A1, “AMPHIPATHIC CARBOXYLATES FOR THE TREATMENT OF IMMUNE-RELATED DISORDERS” (Syndromex Ltd. c/o Yissum Research Development Company, of, priority 2007, published 2010).
# Assays:
# U266 cells [1] = assay: Growth of Multiple Myeloma U266 cells, Trypan Blue exclusion; assay type: cell-based; settings: 200 μM, day 6
# Description: Growth Suppression by M16αα of Multiple Myeloma (MM) cells. MM cells were incubated in RPMI 1640 medium in the presence of added M16αα as indicated. Cell number was determined daily by Trypan Blue exclusion.
# The inhibitory effect of MEDICA drugs on colon tumor cell proliferation, presumably via activation of apoptosis, encouraged the inventors to further investigate the potential beneficial effect of these compounds on other malignancies. The inventors therefore next examined the effect of the MEDICA drugs using the Multiple myeloma model. U-266 and RPMI-8226 cell lines served as cell models for MM. MM cells were incubated in RPMI 1640 medium in the presence of M16αα as indicated. Cell number was determined daily by Trypan Blue exclusion assay. […] It should be noted that generally, these cells were more sensitive even to lower concentrations of M16αα.
# gp130 transcript = gp130 transcript levels in HepG2 cells (real time RT-PCR); assay type: cell-based, human; settings: 200 μM up to 40 h (2, 4, 8, 24, 40 h), normalized with GAPDH
# Description: As shown by FIGS. 5-7, treatment of M16αα results in reduction in the protein levels of gp130, which is the tyrosine kinase receptor upstream to STAT3 in this pathway. The inventors thus next examined whether M16αα affects gp130 at the transcription level. Therefore, HepG2 cells were incubated with M16αα (200 μM) for up to 40 h. Total RNA was prepared at 2 h, 4 h, 8 h, 24 h and 40 h, and gp130 transcription was analyzed by real time RT-PCR and normalized with GAPDH.
# RPMI8226 cells = assay: Cell cycle arrest markers in MM RPMI8226 cells (Western blot); assay type: cell-based; settings: 200 μM, 24 h
# Description: Cell Cycle arrest of MM RPMI8226 by M16αα. RPMI8226 cells were cultured with 200 μM M16αα, in RPMI 1640 medium with 10% FCS for 24 h, lysed, Western blotted and reacted with anti p-P53(S15) and p-Rb as indicated.
# U266 cells [2] = assay: Apoptosis markers (PARP, Bcl-2, Bcl-xL) in MM U266 cells (Western blot); assay type: cell-based; settings: 200 μM
# Description: (§1) U266 cells were cultured with 200 μM M16αα for time periods as indicated, lysed, Western blotted and reacted with anti STAT3, p-STAT3 (Y705), PARP or Bcl-xL antibodies.
# (§2) To examine the possibility that the inhibitory effect of M16αα, on Multiple Myeloma may be mediated by enhancement of pro apoptotic mechanism and induction of cell cycle arrest, U266 cells were cultured with 200 μM M16αα in RPMI 1640 medium with 10% FCS for time periods as indicated, lysed, Western blotted and reacted with anti STAT3, p-STAT3 (Y705), PARP or Bcl-xL and Bcl-2 as indicated.
# [3] = test system: liver APP (SAP, SAA, α-fibrinogen) and IL-6 gene expression; assay: Liver Acute Phase Proteins and IL-6 gene expression in EAE mice (real time PCR); assay type: in vivo; settings: EAE mice 60 mg/kg/day 12 days by gavage
# Description: To further investigate the preventive potential of MEDICA drugs, and specifically of M16αα on EAE model, the effect of these drugs on different pathways involving activation of the immune system have been next examined. Therefore, female mice were treated with M16αα (60 mg/kg/day) or vehicle (1% CMC, the control group) for 12 days by gavage. On the third day EAE has been induced by injection of the MOG35-55 peptide. Nine days following MOG35-55 peptide immunization, mice were anesthesized and sacrificed. Spleenocytes were prepared and were stimulated in vitro with either MOG (100 μg/ml) or LPS (50 μg/ml) and the activation of STAT3 was analyzed by Western blot using anti p-STAT3 (Y705) and anti GP130 antibodies. Liver was immediately frozen in liquid nitrogen and kept at −70 until used for protein and RNA preparation. Total RNA was prepared and analyzed by real time PCR for SAP, SAA, α-fibrinogen and IL-6 gene expression.
# human CRP [4] = assay: Basal plasma human CRP in hCRPtg mice (ELISA); assay type: in vivo; settings: 80 mg/kg/d by gavage for ten days, before treatment 0.619
# Description: hCRPtg were treated for 10d with M16αα (80 mg/kg/d) dissolved in 1% CMC and administered by gavage. Plasma basal CRP was determined before and at the end of treatment by ELISA.
# Unlike human CRP, mouse CRP is not an acute-phase reactant, and is synthesized hi trace amounts only. However, male hCRP transgene mice (hCRPtg), having the human CRP gene flanked by most of human CRP promoter integrated in their genome, constitutively produce human CRP, with serum levels ranging between 10 and 20 μg/mL.
# (§3) Therefore, hCRPtg mice were treated for ten days with M16αα (80 mg/kg/d) dissolved in 1% CMC and administered by gavage. Plasma CRP was determined by ELISA at the beginning and at the end of treatment. […] The inventors further examined the effect of the MEDICA drugs on LPS-induced CRP. Therefore, CRP expression was analyzed in hCRPtg mice treated with M16αα 0.06% (W/W) (about 60 mg/kg body weight/day) for fourteen days and challenged with LPS (25 μg/mice) for the last 18 h. As illustrated by the histogram of FIG. 25, treatment with M16αα decreases LPS-induced levels of human CRP.
# U266 cells [5] = assay: Cell cycle arrest markers in MM U266 cells (Western blot); assay type: cell-based; settings: 200 μM, 24 h
# Description: U266 cells were cultured with 200 μM M16αα in RPMI 1640 medium with 10% FCS for 24 h, lysed, Western blotted and reacted with anti Cyclin D1, p-P53 (S15) and p-Rb as indicated.
# STAT3 = STAT3 phosphorylation in MM U266 cells (Western blot); assay type: cell-based; settings: 200 μM, RPMI 1640, 10% FCS
# Description: as §1, §2
# human CRP [6] = assay: LPS-induced human CRP in hCRPtg mice; assay type: in vivo; settings: 0.06% (W/W) (about 60 mg/kg body weight/day) for fourteen days, LPS 25 μg/mice last 18 h
# Description: The effect of M16αα in decreasing human CRP induced by LPS injection was analyzed in hCRPtg mice treated with M16αα for 14 days and challenged with LPS.
# as §3
structure (smiles),measurement,setting,value
"CC(C)(CCCCCCCCCCCCC(C)(C)C(=O)O)C(=O)O [M16αα, 2,2,15,15-tetramethyl-hexadecanedioic acid]",cell proliferation,U266 cells [1],complete inhibition
same,gp130 transcript levels,gp130 transcript,remained unaffected
same,phosphorylated Rb,RPMI8226 cells,reduction
same,phosphorylated p53,RPMI8226 cells,increase
same,"anti-apoptotic markers (Bcl-2, Bcl-xL)",U266 cells [2],concomitant decrease
same,cleavage of PARP,U266 cells [2]; compared to control cells,enhancement
same,liver APP and IL-6 gene expression,[3],robustly suppressed
same,basal levels of human CRP in plasma at the end of treatment,human CRP [4],0.396
same,Cyclin D1 expression,U266 cells [5],reduction
same,phosphorylated Rb,U266 cells [5],reduction
same,phosphorylated p53,U266 cells [5],increase
same,STAT3 phosphorylation (p-STAT3 Y705),STAT3,clear reduction
same,LPS-induced levels of human CRP,human CRP [6],decreases
